Test results published in ChEMBL document CHEMBL5325413, “Optimization of BAX trigger site activator BTSA1 with improved antitumor potency and in vitro ADMET properties” (Eur J Med Chem, 2023).
The source made the active and inactive calls. The rule behind the calls is not given here.

What was measured:
A549 [1] = assay: Antiproliferative activity against human A549 cells assessed as cell growth inhibition incubated for 72 hrs by MTT assay; assay type: functional
PC-3 = assay: Antiproliferative activity against human PC-3 cells assessed as cell growth inhibition incubated for 72 hrs by MTT assay; assay type: functional
HCT-116 = assay: Antiproliferative activity against human HCT-116 cells assessed as cell growth inhibition incubated for 72 hrs by MTT assay; assay type: functional
A549 [2] = assay: Induction of apoptosis in human A549 cells assessed as dead cells at 10 uM incubated for 48 hrs by Annexin V-FITC/PI staining based flow cytometry analysis (reference value: 0.739%); assay type: functional
A549 [3] = assay: Induction of apoptosis in human A549 cells assessed as late apoptotic cells at 10 uM incubated for 48 hrs by Annexin V-FITC/PI staining based flow cytometry analysis (reference value: 2.15%); assay type: functional
A549 [4] = assay: Induction of apoptosis in human A549 cells assessed as early apoptotic cells at 10 uM incubated for 48 hrs by Annexin V-FITC/PI staining based flow cytometry analysis (reference value: 0.708%); assay type: functional
A549 [5] = assay: Induction of apoptosis in human A549 cells assessed as live cells at 10 uM incubated for 48 hrs by Annexin V-FITC/PI staining based flow cytometry analysis (reference value: 96.4%); assay type: functional
A549 [6] = assay: Induction of apoptosis in human A549 cells assessed as total apoptotic cells at 10 uM incubated for 48 hrs by Annexin V-FITC/PI staining based flow cytometry analysis (reference value: 2.86%); assay type: functional
A549 [7] = assay: Induction of apoptosis in human A549 cells assessed as upregulation of BAX translocation at 20 uM incubated for 24 hrs by Western blot analysis; assay type: functional, cell-based

Compound | GI50 (A549 [1]) [µM] | GI50 (PC-3) [µM] | GI50 (HCT-116) [µM] | Activity (A549 [2]) [%] | Activity (A549 [3]) [%] | Activity (A549 [4]) [%] | Activity (A549 [5]) [%] | Activity (A549 [6]) [%] | Activity (A549 [7])
CN(C)C(=O)c1ccc(N2N=C(c3ccccc3)/C(=N/Nc3ccccc3)C2=O)cc1 | > 50 | > 50 | > 50 | – | – | – | – | – | –
O=C(NCc1ccncc1)c1ccc(N2N=C(c3ccccc3)/C(=N/Nc3ccccc3)C2=O)cc1 | 11.5 | 12.6 | 17.5 | – | – | – | – | – | –
CN(C)CCCNC(=O)c1ccc(N2N=C(c3ccccc3)/C(=N/Nc3ccccc3)C2=O)cc1 | 3.32 | 3.76 | 2.14 | – | – | – | – | – | –
CN(C)C1CCN(C(=O)c2ccc(N3N=C(c4ccccc4)C(=C4CCN(C(=O)c5ccc(O)cc5)CC4)C3=O)cc2)CC1 | 33.6 | > 50 | 34.7 | – | – | – | – | – | –
CC(C)(C)OC(=O)N1CCC2(CC1)CN(C(=O)c1ccc(N3N=C(c4ccccc4)/C(=N\Nc4ccccc4)C3=O)cc1)C2 | 25.5 | 19.9 | 17.7 | – | – | – | – | – | –
CN1CCC(NC(=O)c2cccc(N3N=C(c4ccccc4)/C(=N/Nc4ccccc4)C3=O)c2)CC1 | 9.06 | 15 | 5.83 | – | – | – | – | – | –
O=C(c1ccc(N2N=C(c3ccccc3)/C(=N\Nc3ccccc3)C2=O)cc1)N1CCC(N2CCCCC2)CC1 | 14.5 | 12.8 | 8.75 | – | – | – | – | – | –
O=C(c1ccccc1)N1CCC(C2=NN(c3nc(-c4ccccc4)cs3)C(=O)/C2=N\Nc2nccs2)CC1 | 28.7 | > 50 | > 50 | – | – | – | – | – | –
CC(C)Oc1cc(F)ccc1N/N=C1\C(=O)N(c2ccc(C(=O)N3CCC(N(C)C)CC3)cc2)N=C1c1ccccc1 | 6.13 | 2.42 | 2.2 | – | – | – | – | – | –
O=C1/C(=N\Nc2ccccc2)C(c2ccccc2)=NN1c1ccccc1 | > 50 | > 50 | > 50 | – | – | – | – | – | –
CN(C)C1CCN(C(=O)c2ccc(N3N=C(c4ccccc4)/C(=C/Nc4ccccc4)C3=O)cc2)CC1 | > 20 | > 20 | 14.8 | – | – | – | – | – | –
CN(C)C1CCN(C(=O)c2ccc(N3N=C(c4ccccc4)/C(=N/Nc4cc(C(F)(F)F)cc(C(F)(F)F)c4)C3=O)cc2)CC1 | 4.54 | 1.15 | 1.76 | 0.996 | 10.1 | 34.7 | 54.3 | 44.8 | –
CN(C)C1CCN(C(=O)c2ccc(N3N=C(c4ccccc4)C(=C4CCN(C(=O)c5cc6cc(Cl)ccc6[nH]5)CC4)C3=O)cc2)CC1 | 43.6 | > 50 | > 50 | – | – | – | – | – | –
CN(C)C1CCN(C(=O)c2ccc(N3N=C(c4ccccc4)/C(=N/Nc4ccc5ccccc5c4)C3=O)cc2)CC1 | 4.52 | 4.78 | 2.18 | – | – | – | – | – | –
CN(C)C1CCN(C(=O)c2ccc(N3N=C(c4ccccc4)CC3=O)cc2)CC1 | > 50 | > 50 | > 50 | – | – | – | – | – | –
CN1CCN(C(=O)c2ccc(N3N=C(c4ccccc4)/C(=N/Nc4ccccc4)C3=O)cc2)CC1 | 22.9 | > 50 | 21.9 | – | – | – | – | – | –
CN(C)C1CCN(C(=O)c2ccc(N3N=C(c4ccccc4)/C(=N/Nc4ccc(O)cc4)C3=O)cc2)CC1 | 2.19 | 3.04 | 2.67 | 2.33 | 16.2 | 60 | 21.5 | 76.2 | Active
O=C(c1ccc(N2N=C(c3ccccc3)/C(=N/Nc3ccccc3)C2=O)cc1)N1CCN(C2COC2)CC1 | > 50 | > 50 | > 50 | – | – | – | – | – | –

Compound | GI50 (A549 [1]) [µM] | GI50 (PC-3) [µM] | GI50 (HCT-116) [µM] | Activity (A549 [2]) [%] | Activity (A549 [3]) [%] | Activity (A549 [4]) [%] | Activity (A549 [5]) [%] | Activity (A549 [6]) [%] | Activity (A549 [7])
CN(C)C1CCN(C(=O)c2ccc(N3N=C(c4ccccc4)/C(=C/NCc4ccccc4)C3=O)cc2)CC1 | > 20 | > 20 | > 20 | – | – | – | – | – | –
O=C(c1ccc(N2N=C(c3ccccc3)/C(=N/Nc3ccccc3)C2=O)cc1)N1CCC2(CC1)CNC2 | 4.69 | 5.6 | 4.12 | – | – | – | – | – | –
CN(C)C1CCN(C(=O)c2ccc(N3N=C(c4ccccc4)/C(=N/Nc4cccnc4)C3=O)cc2)CC1 | 4.22 | 5.17 | 3.88 | – | – | – | – | – | –
O=C(c1ccc(N2N=C(c3ccccc3)/C(=N/Nc3ccccc3)C2=O)cc1)N1CCNCC1 | > 50 | > 50 | > 50 | – | – | – | – | – | –
CS(=O)(=O)N1CCN(C(=O)c2ccc(N3N=C(c4ccccc4)/C(=N/Nc4ccccc4)C3=O)cc2)CC1 | > 50 | > 50 | > 50 | – | – | – | – | – | –
N[C@@H]1CCCN(C(=O)c2ccc(N3N=C(c4ccccc4)/C(=N/Nc4ccccc4)C3=O)cc2)C1 | 8.38 | 5.39 | 2.96 | 0.814 | 3.21 | 8.59 | 6.22 | 11.8 | –
CN(C)C1CCN(C(=O)c2cccc(N3N=C(c4ccccc4)/C(=N/Nc4ccccc4)C3=O)c2)CC1 | 2.68 | 10.7 | 5.23 | – | – | – | – | – | –
O=C(c1cscn1)N1CCC(C2=NN(c3nc(-c4ccccc4)cs3)C(=O)/C2=N\Nc2nccs2)CC1 | > 50 | > 50 | > 50 | – | – | – | – | – | –
CC1=NN(c2ccc(C(=O)N3CCC(N(C)C)CC3)cc2)C(=O)/C1=N\Nc1ccccc1 | 8.99 | 4.94 | 3.42 | 4.37 | 1.57 | 11.7 | 82.4 | 13.3 | –
CN(C)C1CCN(C(=O)c2ccc(N3N=C(C4CC4)/C(=N/Nc4ccccc4)C3=O)cc2)CC1 | 2.15 | 7.14 | 4.38 | – | – | – | – | – | –
COc1cc(N/N=C2\C(=O)N(c3ccc(C(=O)N4CCC(N(C)C)CC4)cc3)N=C2c2ccccc2)cc(OC)c1OC | 2.9 | 5.77 | 5.51 | – | – | – | – | – | –
O=C(c1ccc(N2N=C(c3ccccc3)/C(=N/Nc3ccccc3)C2=O)cc1)N1CCCCC1 | > 50 | > 50 | > 50 | – | – | – | – | – | –
COc1cc(N/N=C2\C(=O)N(c3ccc(C(=O)N4CCC(N(C)C)CC4)cc3)N=C2c2ccccc2)ccc1F | 2.79 | 3.94 | 3.37 | 2.85 | 22.2 | 39.6 | 35.4 | 61.8 | Active
CN1CCC(NC(=O)c2ccc(N3N=C(c4ccccc4)/C(=N/Nc4ccccc4)C3=O)cc2)CC1 | 4.44 | 6.45 | 4.13 | – | – | – | – | – | –
O=C1CCN(C(=O)c2ccc(N3N=C(c4ccccc4)/C(=N/Nc4ccccc4)C3=O)cc2)CC1 | > 50 | > 50 | > 50 | – | – | – | – | – | –
CN(C)C1CCN(C(=O)c2ccc(N3N=C(c4ccccc4)C(=C4CCN(C(=O)c5cscn5)CC4)C3=O)cc2)CC1 | 16.6 | 16.8 | 11.7 | – | – | – | – | – | –
CC1CCN(C(=O)c2cccc(N3N=C(c4ccccc4)/C(=N/Nc4ccccc4)C3=O)c2)CC1 | 2.72 | 2.41 | 3.44 | – | – | – | – | – | –
CN(C)C1CCN(C(=O)c2ccc(N3N=C(c4ccccc4)/C(=N/Nc4ccc(OCc5ccccc5)cc4)C3=O)cc2)CC1 | 5.03 | > 20 | > 20 | – | – | – | – | – | –
